Laboratory results taken from patent US5696276A, “Process for preparing 5,8-dihydroxynaphthoquinone derivatives, novel 5,8-dihydroxynaphthoquinone derivatives and their use as anticancer agent” (Kuhnil Pharmaceutical Co., Ltd., priority 1993, dated 1997).
In brackets after ≈: the same amount, converted by molar mass. Read-outs that look alike come from different tables or passages of the source.

How the values were obtained:
HL-60 cells = assay: Cytotoxic activity against HL-60 cells; format: cell-based; conditions: Homo sapiens; HL-60 cells, 48 hours, 37° C.; read-out: ED50, cytotoxic activity against HL-60
Protocol: As in the test for the cytotoxic activity against L1210 cells, the test samples were dissoved in ethanol or dimethylsulfoxide in a certain concentration. 0.1 ml of the sample solution was mixed with 0.9 ml of a fresh medium to prepare the dilutions. To each two test tubes having a screw cap were added 100, 50, 25 μl, respectively, of the sample dilutions by means of a micropipet. To each test tube for the test group and the control group (2√n: n=number of the samples) was added 5 ml of the dilutions of HL-60 cells and K-562 cells which were cultured and activated before 24 hours from the beginning of experiment and then diluted in a concentration of 1×10^5 cells/mi. All test tubes were cultured for 48 hours in a CO2 incubator at 37° C. and then the number of cells was counted using a haemacytometer.
The ED50 value is defined as a concentration (μg/ml) of the sample which inhibits the growth of cancer cells by 50% of the control group and determined according to a method described in NIC's mannual (NIC=National Cancer Institue, U.S.A.). The growth rate Y(%) of cells in the presence of the test sample in each concentration was calculated according to the followign equation: […]
In the above equation, T means the average cell number per ml in the test group after incubation for 48 hours in the presence of the test samples in each concentration, C means the average cell number per ml in the control group after incubation for 48 hours, and Co means the average cell number per ml in the control group at the beginning of incubation. The Y(%) value at each concentration and log10 value of each concentration were obtained and the regression curve was constructed according to the following equation from those obtained values. In this case, when all the Y(%) value obtained at each concentration is greater than 55% or lower than 45%, the experiment was repeatedly conducted.
To construct the regression curve Y=A+BX the values A and B were obtained using the following equation. [formula]
In the above, the value N is the number of selected points which is greater than 2 and lower than, or identical with, the number of cencentration of the test sample, Xi is log(concentration) i, and Yi is the growth ratio at (concentration)i. The value of ED50 was obtained for those obtained slope and intercept.

S-180 sarcoma cells = assay: Animal experiment using Sarcoma S-180 cells (survival of mouse); format: in vivo, male ICR mouse; conditions: for responders at 10 µmol/kg / responders at 15 µmol/kg: 1200 h; for response vs control in vivo at 10 µmol/kg / response vs control in vivo at 15 µmol/kg: read-out: T/C; for responders at 15 µmol/kg / response vs control in vivo at 15 µmol/kg: daily dose 15 μmole (mg/kg/day given per compound)
Outline: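 Male ICR mice (20 to 25 g) received intraperitoneal transplants of 0.1 ml S-180 cell suspension (10^7 cells/ml), prepared from ascites by washing in cold physiological saline. After 24 hours, groups of 8 to 9 mice received 7 to 8 ip injections of sample in dimethylsulfoxide diluted with saline. Controls got 2% dimethylsulfoxide-saline. Survival (T/C, %) was scored against control death.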

L1210 cells = assay: Cytotoxic activity against L1210 cells; format: cell-based; conditions: Mus musculus; L1210 cells, 48 hours, 37° C.; read-out: ED50, cytotoxic activity against L1210
Outline: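 Log-phase L1210 cells (5×10^4 cells/ml) in Fisher medium exposed 48 h at 37 °C in CO2 to three dilutions of sample dissolved in ethanol or DMSO. Cells counted by haemacytometer; growth relative to control; ED50 (μg/ml) from linear regression of growth % on log concentration.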

A549 cancer cells = assay: Cytotoxic activity against A549 cancer cells (sulforhodamin B method); format: cell-based; conditions: Homo sapiens; A549 cells, SRB method, 48 hours; read-out: ED50, cytotoxic activity against A549
Outline: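 Cells seeded at 8×10^4 per well, attached 24 h, then exposed 48 h to six log-spaced concentrations in triplicate. TCA-fixed, SRB-stained, OD read at 520 nm; growth inhibition computed relative to time-zero and untreated counts, IC50 from regression.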

[1] = ip, S-180 ICR mouse, intraperitoneal, daily dose 10 μmole (mg/kg/day given per compound), 7 to 8 injections, read-out: Number of mouse survived for 50 days (converted)
[2] = ip, S-180 ICR mouse, intraperitoneal, daily dose 10 μmole (mg/kg/day given per compound), 7 to 8 injections
[3] = ip, S-180 ICR mouse, intraperitoneal, 7 to 8 injections, read-out: Number of mouse survived for 50 days (converted)
[4] = ip, S-180 ICR mouse, intraperitoneal, 7 to 8 injections

| Structure (SMILES) | IC50 (HL-60 cells) [µg/mL] | responders at 10 µmol/kg (S-180 sarcoma cells; [1]) [%] | response vs control in vivo at 10 µmol/kg (S-180 sarcoma cells; [2]) [%] | IC50 (L1210 cells) [µg/mL] | IC50 (A549 cancer cells) [µg/mL] | responders at 15 µmol/kg (S-180 sarcoma cells; [3]) [%] | response vs control in vivo at 15 µmol/kg (S-180 sarcoma cells; [4]) [%] | responders at 10 µmol/kg (S-180 sarcoma cells; Mus musculus, S-180, ip, read-out: Number of mouse survived for 50 days) [%] | response vs control in vivo at 10 µmol/kg (S-180 sarcoma cells; Mus musculus, S-180, ip) [%] |
| --- | --- | --- | --- | --- | --- | --- | --- | --- | --- |
| CC(C)=CCC(OC(=O)C(Cl)(Cl)Cl)C1=CC(=O)c2c(O)ccc(O)c2C1=O (centres unmarked) [2-(1-trichloroacetyloxy-4-methyl-3-pentenyl)-5,8-dihydroxy-1,4-naphthoquinone] | 0.3 (≈ 0.692 µM) | 0 | 134 | 0.01 (≈ 0.0231 µM) | 2 (≈ 4.61 µM) | – | – | – | – |
| C=CCCCCCCCCC(=O)OC(CC=C(C)C)C1=CC(=O)c2c(O)ccc(O)c2C1=O (centres unmarked) [2-(1-undecylenoyloxy-4-methyl-3-pentenyl)-5,8-dihydroxy-1,4-naphthoquinone] | 0.3 (≈ 0.66 µM) | – | – | 0.01 (≈ 0.022 µM) | 6.7 (≈ 14.7 µM) | 0 | 110 | – | – |
| CC=CC=CC(=O)OC(CC=C(C)C)C1=CC(=O)c2c(O)ccc(O)c2C1=O (centres unmarked) [2-[1-(2,4-hexadienoyloxy)-4-methyl-3-pentenyl]-5,8-dihydroxy-1,4-naphthoquinone] | 0.6 (≈ 1.57 µM) | 25 | 185 | 0.5 (≈ 1.31 µM) | 0.7 (≈ 1.83 µM) | – | – | – | – |
| CC(C)=CCC(OC(=O)C=C(C)C)C1=CC(=O)c2c(O)ccc(O)c2C1=O (centres unmarked) [2-[1-(3,3-dimethyl)acryloxy-4-methyl-3-pentenyl]-5,8-dihydroxy-1,4-naphthoquinone] | 0.05 (≈ 0.135 µM) | – | – | < 0.01 | 1.1 (≈ 2.97 µM) | – | – | 25 | 179 |
| C=CCCC(=O)OC(CC=C(C)C)C1=CC(=O)c2c(O)ccc(O)c2C1=O (centres unmarked) [2-[1-(4-pentenoyl)oxy-4-methyl-3-pentenyl]-5,8-dihydroxy-1,4-naphthoquinone] | 0.5 (≈ 1.35 µM) | 14.3 | 180 | 0.02 (≈ 0.054 µM) | 1 (≈ 2.7 µM) | – | – | – | – |
| C=CCCCCC(=O)OC(CC=C(C)C)C1=CC(=O)c2c(O)ccc(O)c2C1=O (centres unmarked) [2-[1-(6-heptenoyl)oxy-4-methyl-3-pentenyl]-5,8-dihydroxy-1,4-naphthoquinone] | 0.5 (≈ 1.25 µM) | 12.5 | 192 | 0.2 (≈ 0.502 µM) | 4.2 (≈ 10.5 µM) | – | – | – | – |
| CCCCCC=CCC=CCCCCCCCC(=O)OC(CC=C(C)C)C1=CC(=O)c2c(O)ccc(O)c2C1=O (centres unmarked) [2-[1-(9,12-octadecadinoyloxy-4-methyl-3-pentenyl]-5,8-dihydroxy-1,4-naphthoquinone] | 12.5 (≈ 22.7 µM) | – | – | 5 (≈ 9.08 µM) | > 20 | 0 | 100 | – | – |
| CC(C)=CCC(OC(=O)C=C(C)C=CC=C(C)C=CC1=C(C)CCCC1(C)C)C1=CC(=O)c2c(O)ccc(O)c2C1=O (stereo not drawn) [2-[1-(cis-retinoyl)oxy-4-methyl-3-pentenyl]-5,8-dihydroxy-1,4-naphthoquinone] | 6.6 (≈ 11.6 µM) | – | – | 7.1 (≈ 12.4 µM) | > 20 | 0 | 125 | – | – |
| C=CCC/C=C/C(=O)OC(CC=C(C)C)C1=CC(=O)c2c(O)ccc(O)c2C1=O (stereo not drawn) [2-[1-(trans-2,6-heptadienoyloxy)-4-methyl-3-pentenyl]-5,8-dihydroxy-1,4-naphthoquinone] | 0.9 (≈ 2.27 µM) | 12.5 | 180 | 1.3 (≈ 3.28 µM) | 3.8 (≈ 9.59 µM) | – | – | – | – |
| CC/C=C/C(=O)OC(CC=C(C)C)C1=CC(=O)c2c(O)ccc(O)c2C1=O (stereo not drawn) [2-[1-(trans-2-pentenoyloxy)-4-methyl-3-pentenyl]-5,8-dihydroxy-1,4-naphthoquinone] | 0.9 (≈ 2.43 µM) | – | – | 0.4 (≈ 1.08 µM) | 1.1 (≈ 2.97 µM) | 14.3 | 210 | – | – |
